pIC50: −log10 of the molar value. Read-outs that look alike come from different tables or passages of the source.
Tested on: rat primary cortical cultures
Experiment: MEA recordings of spontaneous neuronal network activity
Type: cell-based
Conditions: for pIC50: Rattus norvegicus, value [CI]; for Increased potency to inhibit neuronal activity (MSR, MBR, and MNBR) compared to cathinones lacking the lengthened alkyl chain: acute and prolonged exposure
Description: Rat pups born of timed-pregnant Wistar rats (Envigo, Horst, Netherlands) were sacrificed on postnatal day 0–1 to prepare cortical cultures grown on MEA plates as described previously ([Zwartsen et al., 2018], [2019]). Briefly, a 50 μL drop of cell suspension was added to each well (1 × 10^5 cells/well) of a 48-well MEA plate (Axion BioSystems Inc., Atlanta, GA, United States, M768-GL1-30Pt200) coated with 0.1% polyethyleneimine (PEI). After 2 h, 450 μL dissection medium was added to each well. The day after the isolation (day in vitro 1; DIV1), 450 μL/well dissection medium was replaced with 450 μL/well glutamate medium. At DIV4, 450 μL/well glutamate medium was replaced with 450 μL/well FBS medium (for medium supplements see [Zwartsen et al., 2018], [2019]). Cultures were kept in FBS medium at 37°C, 5% CO2/95% air atmosphere until use at DIV9-10.
Microelectrode array recordings were performed as described in [Zwartsen et al. (2019)]. In short, neuronal activity was measured using a Maestro 768-channel amplifier (Axion BioSystems Inc., Atlanta, GA, United States). Baseline spontaneous neuronal activity was recorded for 30 min at 37°C, after which wells were exposed to selected synthetic cathinones under sterile conditions. Next, neuronal activity was determined during a 30 min “acute exposure” recording. […] Next, exposure medium was replaced with fresh FBS medium and the plate was incubated for 19 h at 37°C, until the 30 min “washout” recording, i.e., 24 h after the start of the exposure.
Effects of 3-MMC, 4-MMC, 4-MEC, pentedrone, 3-MMCinternet, and 4-MECinternet were tested at 1–1000 μM (final concentration). At the day of exposure, stocks and dilutions were freshly made in NB-A FBS medium (for medium supplements see [Zwartsen et al., 2019]). Data on methylone, α-PVP, and MDPV exposure have been published previously in [Zwartsen et al. (2019)]. For each experimental condition, primary cultures from two to three different isolations were used and tested in four to five plates (Nplates). The number of wells (nwells) represents the number of replicates per condition.
Microelectrode array data were analyzed as described in [Zwartsen et al. (2019)]. In short, parameters of interest after acute exposure were expressed as a percentage of the parameters prior to exposure to obtain a treatment ratio for each well (paired comparison; parameterexposure/parameterbaseline as % of control wells). The parameters after prolonged exposure and washout were also expressed as a percentage of the baseline parameters. Next, treatment ratios were grouped per parameter, condition, drug [e.g., mean spike rate (MSR) 10 μM 3-MMC] and exposure scenario (acute, prolonged, or washout).
Outliers (>mean ± 2×SD) for MSR (5.0%) were used to exclude wells on all parameters. Outliers for mean burst rate (MBR; 2.6%) and mean network burst rate (MNBR; 1.4%) were used to exclude wells on specific parameters (burst, network burst, and synchronicity parameters, or network burst and synchronicity parameters, respectively). Finally, the acute, prolonged, and washout control treatment ratios were set to 100% and treatment ratios of exposed wells were normalized to the average treatment ratio of medium control wells of the corresponding parameter and exposure scenario. Treatment ratios of exposed wells were averaged per parameter (e.g., MSR), condition (e.g., 100 μM), drug (e.g., methylone), and exposure scenario (e.g., acute exposure) and used for further statistical analyses [see [Zwartsen et al. (2019)] for more details on criteria, parameters, and exposure scenarios]. Neuronal activity (as % of control) is expressed as mean ± SEM of nwells from Nplates. As the spike, burst, and network burst rates were among the most sensitive parameters, these parameters are presented in the manuscript. Additional parameters are presented in Supplementary Figure 2.
Concentration–response curves were made for transporter, MEA, and cell viability assays. […]

[1] = 0.5 h, acute exposure 30 min, read-out: Neuronal activity IC50, mean burst rate (MBR), acute
[2] = 0.5 h, acute exposure 30 min, read-out: Neuronal activity IC50, mean network burst rate (MNBR), acute
[3] = 0.5 h, acute exposure 30 min, read-out: Neuronal activity IC50, mean spike rate (MSR), acute
[4] = 19 h washout, 24 h after start of exposure, read-out: Neuronal activity IC50, mean burst rate (MBR), recovery
[5] = 19 h washout, 24 h after start of exposure, read-out: Neuronal activity IC50, mean network burst rate (MNBR), recovery
[6] = 19 h washout, 24 h after start of exposure, read-out: Neuronal activity IC50, mean spike rate (MSR), recovery
[7] = prolonged exposure 4.5 h, read-out: Neuronal activity IC50, mean burst rate (MBR), prolonged
[8] = prolonged exposure 4.5 h, read-out: Neuronal activity IC50, mean network burst rate (MNBR), prolonged
[9] = prolonged exposure 4.5 h, read-out: Neuronal activity IC50, mean spike rate (MSR), prolonged

| Structure (SMILES) | pIC50 [1] | pIC50 [2] | pIC50 [3] | pIC50 [4] | pIC50 [5] | pIC50 [6] | Increased potency to inhibit neuronal activity (MSR, MBR, and MNBR) compared to cathinones lacking the lengthened alkyl chain | pIC50 [7] | pIC50 [8] | pIC50 [9] | Neuronal activity following washout (highest concentration (1000 μM), washout 24 h after start of exposure) |
| --- | --- | --- | --- | --- | --- | --- | --- | --- | --- | --- | --- |
| CNC(C)C(=O)c1cccc(C)c1 (centres unmarked) [3-MMC, 2-(methylamino)-1-(3-methylphenyl) propan-1-one] | 4.10 | 4.17 | 4.19 | < 3.00 | < 3.00 |  |  |  |  |  |  |
| CCNC(C)C(=O)c1ccc(C)cc1 (centres unmarked) [4-MEC, 2-(ethylamino)-1-(4-methylphenyl) propan-1-one] | 4.13 | 4.17 | 4.14 | < 3.00 | < 3.00 | < 3.00 |  |  |  |  |  |
| CCCC(C(=O)c1ccc2c(c1)OCO2)N1CCCC1 (centres unmarked) [MDPV, 1-(1,3-benzodioxol-5-yl)-2-pyrro lidin-1-ylpentan-1-one] |  |  |  |  |  |  | two to fourfold |  |  |  |  |
| CNC(C)C(=O)c1ccc(C)cc1 (centres unmarked) [4-MMC, 2-(methylamino)-1-(4-methylphenyl) propan-1-one] | 3.93 | 3.92 | 4.00 | < 3.00 | < 3.00 | < 3.00 |  | 3.83 | 3.78 | 3.94 |  |
| CCCC(NC)C(=O)c1ccccc1 (centres unmarked) [Pentedrone, 2-(methylamino)-1-phenyl pentan-1-one] | 4.59 | 4.64 | 4.64 |  |  |  | two to fourfold | 4.55 | 4.55 | 4.57 | remained fully inhibited |

Source: publication PMC7000521, “Hazard Characterization of Synthetic Cathinones Using Viability, Monoamine Reuptake, and Neuronal Activity Assays” (Frontiers in Neuroscience, 2020)
